Series [1] has as its system HT-29. Briefly: Cytotoxicity against human HT-29 cells assessed as cell viability at 10 uM incubated for 24 hrs in presence of 3-(4-((difluoromethyl)sulfonamido)phenyl)-5-((3-methoxyphenyl)amino)-1H-pyrazole-4-carboxamide by CellTiter-Glo assay. Type of series: toxicity, cell-based. As to conditions: ht-29, 24 h. For orientation: In ATP-based viability assays light output follows the ATP content of the culture.

Series [2] concerns the target T1, Protein cereblon/Mixed lineage kinase domain-like protein (Homo sapiens, UniProt Q8NB16+Q96SW2). Briefly: PROTAC activity at CRBN/MLKL in TSZ-induced human HT29 cells assessed as suppression of phosphorylated protein in cell lysates at 10 uM incubated for 8 hrs measured by capillary immunoassay. Type of series: subcellular. The note with it: HT-29.
Target sequence in this assay (Q96SW2 whole entry, looked up, one chain of several, the tested form may be a part): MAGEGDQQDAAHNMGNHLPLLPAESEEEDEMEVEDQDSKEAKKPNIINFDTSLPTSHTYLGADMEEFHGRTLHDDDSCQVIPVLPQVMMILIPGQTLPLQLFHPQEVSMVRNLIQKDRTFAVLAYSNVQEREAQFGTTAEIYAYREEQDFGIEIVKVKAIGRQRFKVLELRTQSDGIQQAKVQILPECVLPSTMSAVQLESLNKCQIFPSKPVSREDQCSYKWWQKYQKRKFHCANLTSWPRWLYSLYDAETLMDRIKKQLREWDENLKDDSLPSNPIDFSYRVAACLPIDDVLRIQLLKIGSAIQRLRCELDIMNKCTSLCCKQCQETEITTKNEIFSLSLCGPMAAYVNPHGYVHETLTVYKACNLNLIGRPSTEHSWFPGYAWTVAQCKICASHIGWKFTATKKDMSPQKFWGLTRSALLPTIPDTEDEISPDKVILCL
In series [3] the target is Receptor-interacting serine/threonine-protein kinase 3 (Homo sapiens) (UniProt Q9Y572). Briefly: Binding affinity to wild type human RIPK3 (M1/Q307) expressed in bacterial expression system measured upto 10 uM by Eurofins-DiscoverX KINOMEscanTM KdELECT assay.
Receptor-interacting serine/threonine-protein kinase 3 (Homo sapiens), sequence (Q9Y572 whole entry, looked up, the tested form may be a part): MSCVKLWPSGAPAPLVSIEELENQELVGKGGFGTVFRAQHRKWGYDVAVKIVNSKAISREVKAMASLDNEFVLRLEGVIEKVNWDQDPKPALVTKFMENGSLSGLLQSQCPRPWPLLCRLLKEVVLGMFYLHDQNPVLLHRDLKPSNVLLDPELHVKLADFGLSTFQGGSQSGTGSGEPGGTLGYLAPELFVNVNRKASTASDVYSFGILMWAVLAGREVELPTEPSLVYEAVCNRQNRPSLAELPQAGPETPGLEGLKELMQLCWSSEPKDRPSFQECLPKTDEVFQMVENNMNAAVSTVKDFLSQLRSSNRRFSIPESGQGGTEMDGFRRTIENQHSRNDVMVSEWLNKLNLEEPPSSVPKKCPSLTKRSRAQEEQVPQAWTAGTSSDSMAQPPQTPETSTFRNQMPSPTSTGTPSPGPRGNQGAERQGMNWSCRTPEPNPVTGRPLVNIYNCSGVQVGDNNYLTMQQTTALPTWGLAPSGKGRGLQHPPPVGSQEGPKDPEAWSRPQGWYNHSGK
For series [4], the target named is T1, Protein cereblon/Mixed lineage kinase domain-like protein. Briefly: PROTAC activity at CRBN/MLKL in human HT29 cells assessed as remaining protein level in cell lysates at 10 uM incubated upto 5 hrs measured by capillary immunoassay relative to vehicle treated control. As to conditions: HT-29. The series is classed as subcellular.
Target sequence in this assay (Q96SW2 whole entry, looked up, one chain of several, the tested form may be a part): as the sequence (Q96SW2 whole entry, looked up, one chain of several, the tested form may be a part) above
Series [5] addresses Protein cereblon/Receptor-interacting serine/threonine-protein kinase 1 (Homo sapiens) (UniProt Q13546+Q96SW2). Briefly: PROTAC activity at CRBN/RIPK1 in human HT29 cells assessed as remaining protein level in cell lysates at 10 uM incubated for 24 hrs measured by capillary immunoassay relative to vehicle treated control. Type of series: subcellular. The note with it: HT-29.

For series [6], the target named is T1, Protein cereblon/Mixed lineage kinase domain-like protein. Briefly: PROTAC activity at CRBN/MLKL in human HT29 cells assessed as remaining protein level in cell lysates at 10 uM incubated upto 8 hrs measured by capillary immunoassay relative to vehicle treated control. Type of series: subcellular. The note with it: HT-29.
Target sequence in this assay (Q96SW2 whole entry, looked up, one chain of several, the tested form may be a part): as above
For series [7], the target named is Protein cereblon/Mixed lineage kinase domain-like protein (Mus musculus) (UniProt Q8C7D2+Q9D2Y4). The series is described as follows: PROTAC activity at CRBN/MLKL in mouse NIH-3T3 cells assessed as remaining protein level in cell lysates at 0.1 to 10 uM incubated for 24 hrs measured by capillary immunoassay. The note with it: dose 0.1-10 µM. Type of series: subcellular.
Protein cereblon/Mixed lineage kinase domain-like protein (Mus musculus), sequence (Q8C7D2 whole entry, looked up, the tested form may be a part): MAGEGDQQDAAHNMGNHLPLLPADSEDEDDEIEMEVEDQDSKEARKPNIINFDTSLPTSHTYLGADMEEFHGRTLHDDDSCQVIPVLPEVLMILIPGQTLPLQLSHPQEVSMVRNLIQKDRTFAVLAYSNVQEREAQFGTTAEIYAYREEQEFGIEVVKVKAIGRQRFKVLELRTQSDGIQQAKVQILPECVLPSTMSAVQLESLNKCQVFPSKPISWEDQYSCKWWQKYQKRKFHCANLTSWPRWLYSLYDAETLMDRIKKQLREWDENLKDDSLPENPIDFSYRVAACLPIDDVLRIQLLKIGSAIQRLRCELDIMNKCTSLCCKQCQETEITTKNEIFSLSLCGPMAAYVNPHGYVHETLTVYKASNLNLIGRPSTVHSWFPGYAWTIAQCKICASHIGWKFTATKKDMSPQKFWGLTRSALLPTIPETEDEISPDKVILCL
Protein cereblon/Mixed lineage kinase domain-like protein (Mus musculus), sequence (Q9D2Y4 whole entry, looked up, the tested form may be a part): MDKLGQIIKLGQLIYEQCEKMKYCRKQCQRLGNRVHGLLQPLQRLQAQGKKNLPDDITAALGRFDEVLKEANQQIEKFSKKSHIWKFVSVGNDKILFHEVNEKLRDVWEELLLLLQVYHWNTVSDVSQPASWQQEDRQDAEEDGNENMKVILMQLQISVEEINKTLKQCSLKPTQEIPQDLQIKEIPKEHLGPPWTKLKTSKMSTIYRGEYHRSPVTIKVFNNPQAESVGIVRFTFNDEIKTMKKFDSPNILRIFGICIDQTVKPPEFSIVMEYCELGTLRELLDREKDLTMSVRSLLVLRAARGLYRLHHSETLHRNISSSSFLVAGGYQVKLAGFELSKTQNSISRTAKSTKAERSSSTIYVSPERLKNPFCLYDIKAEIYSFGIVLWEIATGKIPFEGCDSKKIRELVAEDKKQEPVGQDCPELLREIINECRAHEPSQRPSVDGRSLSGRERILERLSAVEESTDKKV

Series [8] deals with Protein cereblon/Receptor-interacting serine/threonine-protein kinase 2 (Homo sapiens) (UniProt O43353+Q96SW2). The series is described as follows: PROTAC activity at CRBN/RIPK2 in human HT29 cells assessed as remaining protein level in cell lysates at 10 uM incubated for 24 hrs measured by capillary immunoassay relative to vehicle treated control. Type of series: subcellular. As to conditions: HT-29.
Protein cereblon/Receptor-interacting serine/threonine-protein kinase 2 (Homo sapiens), sequence (O43353 whole entry, looked up): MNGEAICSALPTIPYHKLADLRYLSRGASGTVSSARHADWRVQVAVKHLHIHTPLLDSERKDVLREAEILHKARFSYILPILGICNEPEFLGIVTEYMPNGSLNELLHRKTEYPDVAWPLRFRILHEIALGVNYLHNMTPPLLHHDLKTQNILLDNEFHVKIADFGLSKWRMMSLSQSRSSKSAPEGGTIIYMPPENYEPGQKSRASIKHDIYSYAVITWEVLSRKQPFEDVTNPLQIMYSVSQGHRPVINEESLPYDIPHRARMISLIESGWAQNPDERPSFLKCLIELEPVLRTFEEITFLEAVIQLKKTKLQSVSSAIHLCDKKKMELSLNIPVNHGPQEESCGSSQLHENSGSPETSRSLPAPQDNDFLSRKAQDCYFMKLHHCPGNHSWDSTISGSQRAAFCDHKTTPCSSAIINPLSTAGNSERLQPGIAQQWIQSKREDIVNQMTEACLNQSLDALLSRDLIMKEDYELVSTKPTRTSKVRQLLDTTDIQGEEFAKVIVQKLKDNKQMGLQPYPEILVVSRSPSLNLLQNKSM
Protein cereblon/Receptor-interacting serine/threonine-protein kinase 2 (Homo sapiens), sequence (Q96SW2 whole entry, looked up): as the sequence (Q96SW2 whole entry, looked up, one chain of several, the tested form may be a part) above

In series [9] the target is T1, Protein cereblon/Mixed lineage kinase domain-like protein. Briefly: PROTAC activity at CRBN/MLKL in human HT-29 cells assessed as degraded protein level in cell lysates at 10 uM incubated for 24 hrs measured by capillary immunoassay relative to vehicle treated control. The series is classed as subcellular.
Target sequence in this assay (Q96SW2 whole entry, looked up, one chain of several, the tested form may be a part): as above
Series [10] shares this target. The series is described as follows: PROTAC activity at CRBN/MLKL in human HK-2 cells assessed as remaining protein level in cell lysates at 0.1 to 10 uM incubated for 24 hrs measured by capillary immunoassay. Type of series: subcellular. As to conditions: dose 0.1-10 µM.
Target sequence in this assay (Q96SW2 whole entry, looked up, one chain of several, the tested form may be a part): as above
The target is the same in series [11]. The series is described as follows: PROTAC activity at CRBN/MLKL in human MKN74 cells assessed as remaining protein level in cell lysates at 0.1 to 10 uM incubated for 24 hrs measured by capillary immunoassay. Type of series: subcellular. The note with it: dose 0.1-10 µM.
Target sequence in this assay (Q96SW2 whole entry, looked up, one chain of several, the tested form may be a part): as above
Series [12] shares this target. The series is described as follows: PROTAC activity at CRBN/MLKL in human HT29 cells assessed as remaining protein level in cell lysates incubated for 72 hrs measured by capillary immunoassay. As to conditions: HT-29. The series is classed as subcellular.
In series [13] the test system is HT-29. Briefly: Cytotoxicity against human HT-29 cells assessed as cell viability at 10 uM incubated for 24 hrs in presence of lenalidomide by CellTiter-Glo assay. Type of series: toxicity, cell-based. The note with it: ht-29, 24 h.
The target of series [14] is T1, Protein cereblon/Mixed lineage kinase domain-like protein. Briefly: PROTAC activity at CRBN/MLKL in TSZ-induced human HT29 cells assessed as remaining protein level in cell lysates preincubated with MG-132 for 30 mins followed by treated at 10 uM for 8 hrs measured by capillary immunoassay. Type of series: subcellular. The note with it: HT-29.
For series [15] the target is unchanged. Briefly: PROTAC activity at CRBN/MLKL in human HEK-a cells assessed as remaining protein level in cell lysates at 0.1 to 10 uM incubated for 24 hrs measured by capillary immunoassay. The series is classed as subcellular. As to conditions: dose 0.1-10 µM.
For series [16], the system named is HT-29. The series is described as follows: Protection against TSZ-induced necroptosis in human HT-29 cells assessed as cell viability incubated for 24 hrs by CellTiter Glo assay. As to conditions: HT-29, 24 h.
The target in series [17] is T1, Protein cereblon/Mixed lineage kinase domain-like protein. The series is described as follows: PROTAC activity at CRBN/MLKL in human HT-29 cells assessed as degraded protein level in cell lysates incubated for 24 hrs measured by capillary immunoassay relative to vehicle treated control. Type of series: subcellular.
The target of series [18] is T2, Mixed lineage kinase domain-like protein (Homo sapiens) (UniProt Q8NB16).
T2 sequence (whole entry): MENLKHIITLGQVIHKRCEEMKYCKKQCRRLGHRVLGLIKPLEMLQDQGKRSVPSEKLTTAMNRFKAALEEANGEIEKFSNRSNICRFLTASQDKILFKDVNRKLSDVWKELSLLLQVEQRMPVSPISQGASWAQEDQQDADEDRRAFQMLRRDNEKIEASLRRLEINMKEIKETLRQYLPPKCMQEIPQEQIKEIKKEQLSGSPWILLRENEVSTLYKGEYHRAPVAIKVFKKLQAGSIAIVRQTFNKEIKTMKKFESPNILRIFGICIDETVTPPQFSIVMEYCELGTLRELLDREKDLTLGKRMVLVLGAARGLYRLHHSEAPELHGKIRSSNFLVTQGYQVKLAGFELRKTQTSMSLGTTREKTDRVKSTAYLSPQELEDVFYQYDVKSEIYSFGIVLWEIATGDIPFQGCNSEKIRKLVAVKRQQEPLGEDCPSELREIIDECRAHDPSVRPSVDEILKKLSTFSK
Briefly: Induction of MLKL degradation in human HT-29 cells assessed as remaining protein level in cell lysates incubated for 24 hrs measured by capillary immunoassay. The series is classed as subcellular.

Series [19] concerns the target T1, Protein cereblon/Mixed lineage kinase domain-like protein. The series is described as follows: PROTAC activity at CRBN/MLKL in TSZ-induced human HT29 cells assessed as suppression of phosphorylated protein in cell lysates at 10 uM incubated for 4 hrs measured by capillary immunoassay. Type of series: subcellular. The note with it: HT-29.
Series [20] addresses T3, Receptor-interacting serine/threonine-protein kinase 1 (Homo sapiens) (UniProt Q13546).
T3 sequence (whole entry): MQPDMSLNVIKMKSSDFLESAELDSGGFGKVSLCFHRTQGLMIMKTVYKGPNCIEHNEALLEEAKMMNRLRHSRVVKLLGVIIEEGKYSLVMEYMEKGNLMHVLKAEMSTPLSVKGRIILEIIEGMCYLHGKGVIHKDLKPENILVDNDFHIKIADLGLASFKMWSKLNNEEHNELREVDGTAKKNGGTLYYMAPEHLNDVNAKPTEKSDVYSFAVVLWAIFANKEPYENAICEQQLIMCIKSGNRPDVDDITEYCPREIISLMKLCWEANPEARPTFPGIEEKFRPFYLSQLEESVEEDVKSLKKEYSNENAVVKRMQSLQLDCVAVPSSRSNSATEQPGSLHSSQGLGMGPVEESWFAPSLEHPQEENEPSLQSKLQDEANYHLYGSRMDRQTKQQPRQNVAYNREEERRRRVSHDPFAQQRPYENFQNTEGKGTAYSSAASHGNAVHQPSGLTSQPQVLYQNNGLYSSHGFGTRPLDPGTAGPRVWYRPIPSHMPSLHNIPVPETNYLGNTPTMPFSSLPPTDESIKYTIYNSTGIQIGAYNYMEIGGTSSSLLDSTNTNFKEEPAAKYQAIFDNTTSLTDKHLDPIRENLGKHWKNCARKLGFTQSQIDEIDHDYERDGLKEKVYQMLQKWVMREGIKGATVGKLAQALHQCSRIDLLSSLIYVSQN
Briefly: Binding affinity to wild type human RIPK1 (M1/K305) expressed in bacterial expression system measured upto 10 uM by Eurofins-DiscoverX KINOMEscanTM KdELECT assay.

Activity calls are given as the source filed them. The calls are words filed in the database; no cut-off is given here. Some results are limits rather than exact numbers.

Protein cereblon/Receptor-interacting serine/threonine-protein kinase 1 (Homo sapiens), sequence (Q96SW2 whole entry, looked up, one chain of several): as the sequence (Q96SW2 whole entry, looked up, one chain of several, the tested form may be a part) above

Turning to `COc1ccc(C(=O)N2CCC3(CCN(C(=O)CCCCCCCOc4cccc(Nc5[nH]nc(-c6ccc(NS(=O)(=O)C(F)F)cc6)c5C(N)=O)c4)CC3)CC2)cc1N1CCC(=O)NC1=O`, the Activity result is “Non-Toxic” with HT-29 [1]; less than 10% in series [4]; greater than 90% in [9]; “Non-Toxic” with HT-29 [13]; “Dose-Dependent Effect” in [17] (dose 0.1-10 µM). Besides, the result in series [2], in [6], in series [7], in series [10], in [11] and in series [12] was Active. Besides, the outcome in series [15] and in series [19] was Active. Further, the result in [3], in series [5], in [8], in [14], in [18] and in series [20] was inactive. Besides, the EC50 – broadly, the concentration that produces a half-maximal response – with HT-29 [16] stood at 1200 nM; in [17], 2400 nM.

The values are drawn from ChEMBL document CHEMBL5325492, “PROTACs Targeting MLKL Protect Cells from Necroptosis” (J Med Chem, 2023).
